Laboratory results reported in US20240076624A1, “Methods and Tools for Studying Enteroendocrine Cells” (Koninklijke Nederlandse Akademie Van Wetenschappen, priority 2020, published 2024).

What was measured:
[1] = test system: MLK-7K; conditions: target MLK-7K; cited from earlier work
[2] = biological target: T1, OR51E2 (Homo sapiens, UniProt Q9H255); conditions: HEK cells after overexpression of OR51E2 (Pietraszewska-Bogiel et al., 2019); cited from earlier work
T1 construct: endogenous in cells; host or cells: human intestinal organoids NEUROG3-dTomato / TPH1-mClover carrying the Tq-Ca-FLITS calcium sensor, differentiated to EECs
T1 sequence (Q9H255 1-320): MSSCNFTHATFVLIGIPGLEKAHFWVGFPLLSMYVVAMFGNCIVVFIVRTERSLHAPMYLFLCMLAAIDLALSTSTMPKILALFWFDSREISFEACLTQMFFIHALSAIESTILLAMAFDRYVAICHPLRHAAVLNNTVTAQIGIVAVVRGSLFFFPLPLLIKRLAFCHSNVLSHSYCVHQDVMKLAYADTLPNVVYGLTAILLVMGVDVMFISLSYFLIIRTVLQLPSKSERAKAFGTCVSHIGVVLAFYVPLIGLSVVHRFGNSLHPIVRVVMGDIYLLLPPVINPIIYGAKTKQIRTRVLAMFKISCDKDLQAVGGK

[3] = biological target: T1, OR51E2; assay: Calcium sensor (Tq-Ca-FLITS) response in TPH1-mClover NEUROG3-dTomato organoid; format: cell-based; conditions: for calcium flux in EECs (TPH1-negative): colon-derived reporter organoid
Description: (F) Fluorescent image of a TPH1^mClover NEUROG3^dTomato organoid that is transduced with the turquoise calcium sensor Tq-Ca-FLITS, containing a nuclear localization signal. Five examples of nuclei are highlighted of which the calcium response is followed after treatment with Beta-ionone, the agonist of OR51E2.
For example, in some embodiments, the compound is beta-ionone and the sensor is a calcium sensor. Beta-ionone is an agonist of the olfactory receptor OR51E2. The mouse homologue of OR51E2 had been reported to be expressed in mouse EECs (Fleischer et al., 2015; Jovancevic et al., 2017). However, prior to the invention, it was not known which human EECs OR51E2 is expressed in. Olfactory genes in humans and mice are very different as these genes quickly evolve. Therefore, the homology of these sequences tend to be low, and it is difficult to project expression profiles of mouse olfactory genes on humans. The inventors have found two olfactory receptors that are abundantly expressed in human EECs, OR51E1 and OR51E2. […] This provided proof-of-concept that sensors combined with hormone reporters from EEC-TAG can aid the study of functional signalling responses in human EEC subtypes. Thus, calcium reporters can be combined as a measure of hormone activation with the knowledge of the expression levels of targets such as olfactory receptors in subpopulations of EECs. Thus, the use of a reporter organoid in conjunction with a calcium reporter allows for screening for activators of targets such as cell surface receptors, e.g. olfactory receptors, and such methods are provided herein. In some embodiments, the calcium assay is conducted in an intestinal organoid which is not itself a reporter organoid and a reporter organoid is used to validate which EEC subtype the calcium is being activated in and so which hormones are being activated. […] This can be extrapolated to which EEC subtype hormone secretion is being activated in.

[4] = biological target: T2, olfactory receptor OR51E2 (Homo sapiens, UniProt Q9H255); assay: Live cell imaging of calcium reporter (Tq-Ca-FLITS) organoids; format: cell-based; conditions: NEUROG3-dTomato TPH1-mClover CaFLITS-Turquoise reporter organoids; FIG. 2F
T2 construct: endogenous in cells; host or cells: human intestinal organoids NEUROG3-dTomato / TPH1-mClover carrying the Tq-Ca-FLITS calcium sensor, differentiated to EECs
T2 sequence (Q9H255 1-320): T1 sequence (Q9H255 1-320)
Experimental: A red calcium probe (pTorPE-R-GECO1, addgene plasmid #32465) was used as a template to engineer a cyan genetically encoded calcium probe. The cpApple was replaced with a circular permuted mTurquoise. The resulting probe was dubbed Tq-Ca-FLITS (Turquoise Calcium Fluorescence Lifetime Indicator for Truthful Sensing). A triple nuclear localization signal (3×nls) was added to the N-terminus of the calcium probe to simplify analysis. Details of the engineering and characterization will be described elsewhere (Van der Linden et al., in preparation).
PCRs were performed on Tq-Ca-FLITS (Fw […]atgggatcagatccaaaaaagaagag, Rev […]c[…]) as well as H2B-mMaroon (Fw […], Rev […]attaagtttgtgcccc) and the two PCRs were cloned into a lentiviral vector using InPhusion Cloning (Takara), to produce H2B-mMaroon-P2A-Tq-Ca-FLITS, two simultaneously expressed cistrons separated by a de-optimized P2A (Lo et al., 2015).
H2B-mMaroon-P2A-Tq-Ca-FLITS organoids were imaged on a Leica SP8 confocal laser scanning microscope, equipped with Argon laser and White Light Laser, the latter allowing spectral flexibility for optimal visualization of all fluorophores. […]

[5] = test system: enteroendocrine cell differentiated organoids; assay: Hormone expression in EEC differentiated organoids treated with Midkine; format: cell-based, human

For `c1ccc(-c2n[nH]cc2-c2ccnc3ccccc23)nc1` [LY-36494, 4-[3-(2-Pyridinyl)-1H-pyrazol-4-yl]-quinoline], the IC50 [1] is given as 1400 nM.

For `CC(=O)/C=C/C1=C(C)CCCC1(C)C` [Beta-ionone], the calcium response [2] is given as “elicit a calcium response”, the “calcium flux in non-EEC” value [3] is given as “does not show calcium increases” and the “calcium flux in EECs (TPH1-negative)” value [3] is given as “increases in calcium flux”. For the same molecule, the “calcium flux in EECs (TPH1-negative)” value ([3]; listed as beta-ionone) was “calcium sparking” and the “calcium reporter response in EECs” value [4] was “calcium sparking in EECs that were TPH1-negative”.

B1: Midkine: heparin-binding growth factor, cytokine; sequence SEQ ID NO:69 (protein, listed as Homo sapiens)
chain: VAKKKDKVKKGGPGSECAEWAWGPCTPSSKDCGVGFREGTCGAQTQRIRCRVPCNWKKEFGADCKYKFENWGACDGGTGTKVRQGTLKKARYNAQCQETIRVTKPCTPKTKAKAKAKKGKGKD
In the case of B1, the “expression of EEC hormones” value [5] is reported as “reduces the expression of all hormones”.
